How the values were obtained:
[1] = tested on: intact SAN from CASQ2 D307H KI mice; test: Spontaneous calcium transients ex vivo in intact SAN tissue from CASQ2-D307H KI mice (Fluo-4 AM); format: cell-based, mouse; conditions: 2 μM TRAM-34 added to 100 nM isoproterenol
Protocol: (§1) SAN tissue preparations were dissected ex vivo from WT and CASQ2-D307H KI mice as described in Torrente, A. G., et al. Proc Natl Acad Sci USA 112, 9769-9774 (2015). The dissected whole SAN tissue was pinned on a hand-made chamber and was incubated in a Tyrode solution containing 10 μM Fluo-4 AM (Thermo Fisher Scientific) and pluronic acid for 1 hour at 37° C. in the dark. The SAN tissue was washed in Tyrode at 37° C. in the dark for 10 minutes before experiments. Fluorescence of calcium transients was recorded using a photomultiplier (PTi D-104) at 35° C. and the analog signals were digitized using Digidata 1440 (Molecular Devices) and analyzed with pCLAMP 10.5 software.
(§2) To investigate the spontaneous calcium transients of the SAN, intact SAN tissue preparations dissected ex vivo from WT and CASQ2-D307H KI mice were exposed to Fluo-4 AM as previously described [Torrente, A. G., et al. Proc Natl Acad Sci USA 112, 9769-9774 (2015)].
FIG. 6B presents representative traces of different types of calcium transient abnormalities recorded in intact SAN from CASQ2 D307H KI mice, termed as “local Ca^2+ release” (upper left), “double humped transients” (upper right), “large-stored released Ca^2+ waves” (lower left) and “calcium alternans” (lower right).
FIG. 6C presents representative trace of spontaneous calcium transients recorded from intact SAN of CASQ2 D307H KI. The baseline rate of calcium transients (control, black trace) yielded chaotic calcium transients (red trace) following incubation of the SAN with 100 nM isoproterenol.

[2] = tested on: T type and L-type Ca2+ currents; test: Selectivity: voltage-ramp protocol in hESC-CMs, zero free Ca2+ in pipet; format: cell-based, human; conditions: 5 μM TRAM-34; zero free Ca2+ in pipet solution; n=7
Protocol: The experiments were performed in zero free Ca2+ in the pipet solution.

If and INCX currents = conditions: 5 μM TRAM-34; cited from earlier work
CASQ2-D307H KI mice = test: In vivo telemetric ECG recording in CASQ2-D307H KI mice; parameters: species or system mouse; conditions: 20 mg/kg IP; for number of mice, most severe ECG form: NSVT / number of mice, most severe ECG form: Normal (sinusal rhythm) / number of mice, most severe ECG form: SVT / number of mice, most severe ECG form: VPC: n=5 Clotrimazole, n=12 TRAM-34
Excerpt: (§3) Telemetric ambulatory long-term ECG recordings, analogous to Holter monitoring in humans, were obtained with implantable transmitters. […] An implantable 3.5 grams wireless radiofrequency transmitter (DSI MM USA, device weight 3.8 grams) was aseptically inserted into a subcutaneous tissue pocket in the back as described in Katz, G., et al. Heart Rhythm 7, 1676-1682 (2010) and Kurtzwald-Josefson, E., et al. Heart Rhythm 11, 1471-1479 (2014)]. Animals were allowed to recover after surgery for at least 24 hours before any experiments. Baseline electrocardiograms (ECG) were obtained 15 minutes after IP injection of the appropriate vehicle (peanut oil or peanut oil supplemented with ethanol 1%). […] Telemetered ECG tracings were obtained in conscious mice at rest for one minute and during peak exercise (i.e. the first minute of recovery). In the treadmill exercise, mice were forced to exercise on a rodent treadmill; gradually increasing the speed up to a maximum of 15 m/minute. Ventricular tachycardia (VT) was defined as four or more consecutive ventricular beats. If this phenotype was consecutively observed for more than 15 seconds, it was defined as “sustained” ventricular tachycardia (SVT). Shorter VTs were characterized as “non-sustained” (NSVT). All other ventricular arrhythmias, such as premature beats, ventricular bigeminy, couplets and triplets were all defined as ventricular premature contractions (VPCs).
(§4) A heart telemetry device was implanted in WT, CASQ2-D307H KI and CASQ2 KO mice for continuous ECG recording at rest and during treadmill exercise. For each session, continuous ECG recording was performed with the same animals receiving first intraperitoneal (IP) injection of vehicle (peanut oil) and then the SK4 channel blocker.
(§5) The types of arrhythmic features were classified following their seriousness: sinusal rhythm (normal), ventricular premature contractions (VPC), non-sustained ventricular tachycardia (NSVT) and sustained ventricular tachycardia (SVT). For each mouse was considered the most severe form of arrhythmia recorded under ECG.

CPVT2 hiPSC-CMs = test: Spontaneous APs and DADs in hiPS-CMs derived from CPVT2 (CASQ2 D307H) patients; format: cell-based, human; conditions: 5 μM TRAM-34 added to 3 μM isoproterenol
Protocol: In all experiments, the coverslips were perfused at 33° C. with an external solution containing (in mM): 140 NaCl, 4 KCl, 11 Glucose, 1.2 MgCl2, 1.8 CaCl2, 5.5 HEPES titrated to pH 7.4 with NaOH and adjusted at 320 mOsm with sucrose.
FIG. 4F (Left) presents representative traces of spontaneous APs recorded in hiPS-CM derived from a CPVT2 (CASQ2 D307H) patients. From a regular pacing (black trace), DADs appeared when the cell was exposed to 3 μM isoproterenol (red trace, arrows). […] The suppression of cell 540 automaticity was reversible upon washout (blue trace). FIG. 4F (Right) present bar graphs showing data summary of pacing rate (n=17), on APD50 (n=17) and DADs (Normalized to Ctrl; one-way ANOVA***P=0.0001, n=15).

CASQ2 KO mice = test: In vivo telemetric ECG recording in CASQ2 KO mice; parameters: species or system mouse; conditions: 20 mg/kg IP; for number of mice, most severe ECG form: NSVT / number of mice, most severe ECG form: Normal (sinusal rhythm) / number of mice, most severe ECG form: SVT / number of mice, most severe ECG form: VPC: n=6
Excerpt: as §3, §4, §5

[3] = tested on: intact SAN tissue preparations from WT mice; test: Spontaneous calcium transients ex vivo in intact SAN tissue from WT mice (Fluo-4 AM); format: cell-based, mouse; conditions: 2 μM TRAM-34 in presence of 100 nM isoproterenol
Protocol: as §1, §2
FIG. 6A (Left) presents representative traces of spontaneous calcium transients recorded ex vivo in intact SAN tissue preparations from WT mice. […] Right: data summary of calcium transient rate (one-way-ANOVA***P=0.0003; n=12).

WT mice = test: In vivo telemetric ECG recording in WT (normal) mice; parameters: species or system mouse; conditions: 20 mg/kg IP, WT mice at rest
Excerpt: as §3
For this, a heart telemetry device was implanted in norma mice for continuous ECG recording at rest and during treadmill exercise. For each session, continuous ECG recording was performed with the same animals receiving first intraperitoneal (IP) injection of vehicle (peanut oil) and then 20 mg/kg clotrimazole.
as §4

Clc1ccccc1C(c1ccccc1)(c1ccccc1)n1cccn1 [TRAM-34, 1-[(2-chlorophenyl)diphenylmethyl]-1H-pyrazole]
number of SANs displaying double humped transients or large-stored released Ca2+ waves [1]: zero | shapes of isoproterenol induced aberrant calcium waves [1]: normalized the shapes of isoproterenol induced aberrant calcium waves | T type and L type Ca2+ currents (two inward humps) [2]: does not alter the voltage-gated Ca2+ currents | If and INCX currents (If and INCX currents): unaffected | PR prolongation (CASQ2-D307H KI mice; KI mice at rest, n=12): 23% | heart rate decrease (CASQ2-D307H KI mice; KI mice at rest, n=12): 24±4% | sinus rate and PR interval (CASQ2-D307H KI mice; KI mice during treadmill exercise): significant sinus bradycardia and PR interval prolongation | mice with ECG arrhythmic features totally suppressed (CASQ2-D307H KI mice; KI mice, resting conditions): 9 out of 12 | number of mice, most severe ECG form: NSVT (CASQ2-D307H KI mice; KI at rest): 0 | number of mice, most severe ECG form: Normal (sinusal rhythm) (CASQ2-D307H KI mice; KI at rest): 9 | number of mice, most severe ECG form: SVT (CASQ2-D307H KI mice; KI at rest): 0 | number of mice, most severe ECG form: VPC (CASQ2-D307H KI mice; KI at rest): 3 | number of mice, most severe ECG form: NSVT (CASQ2-D307H KI mice; KI during Exercise): 4 | number of mice, most severe ECG form: Normal (sinusal rhythm) (CASQ2-D307H KI mice; KI during Exercise): 4 | number of mice, most severe ECG form: SVT (CASQ2-D307H KI mice; KI during Exercise): 0 | number of mice, most severe ECG form: VPC (CASQ2-D307H KI mice; KI during Exercise): 4 | number of DADs (CPVT2 hiPSC-CMs): drastically reduced the number of DADs | spontaneous activity (CPVT2 hiPSC-CMs): reversible cessation of the spontaneous activity | PR prolongation (CASQ2 KO mice; KO mice at rest, n=7): 46% | heart rate decrease (CASQ2 KO mice; KO mice at rest, n=7): 34±7% | sinus rate and PR interval (CASQ2 KO mice; KO mice during treadmill exercise): significant sinus bradycardia and PR interval prolongation | number of mice, most severe ECG form: NSVT (CASQ2 KO mice; KO at rest): 0 | number of mice, most severe ECG form: Normal (sinusal rhythm) (CASQ2 KO mice; KO at rest): 6 | number of mice, most severe ECG form: SVT (CASQ2 KO mice; KO at rest): 0 | number of mice, most severe ECG form: VPC (CASQ2 KO mice; KO at rest): 0 | number of mice, most severe ECG form: NSVT (CASQ2 KO mice; KO during exercise): 3 | number of mice, most severe ECG form: Normal (sinusal rhythm) (CASQ2 KO mice; KO during exercise): 3 | number of mice, most severe ECG form: SVT (CASQ2 KO mice; KO during exercise): 0 | number of mice, most severe ECG form: VPC (CASQ2 KO mice; KO during exercise): 0 | pattern of the Ca2+ waves [3]: did not alter the pattern of the Ca^2+ waves | prolongation of the PR interval (WT mice): 20% | reduction of resting heart rate (WT mice; vs vehicle in same animal): 16±3%

— US11166940B2, “Treatment of cardiac disorders by blocking SK4 potassium channel” (Ramot at Tel-Aviv University Ltd., priority 2016, dated 2021)
